Assay results from patent US4332818A, “1,4;3,6-Dianhydro-2,5-diazido-2,5-dideoxy-hexitols” (priority 1980, dated 1982).

What was measured:
[1] = test system: mice; test: HD50 (hypnotic dose) on mice; type: in vivo; settings: Mus musculus, HD = hypnotic dose
From the text: (§1) The activity of the compounds of the Formula I has been tested and compared to that of Glutethimid in various tests. As test compound 1,4;3,6-dianhydro-2,5-diazido-2,5-dideoxy-L-mannitol is used.
(§2) In Table I the LD50 and HD50 values measured on mice are disclosed (HD=hypnotic dose). Table II contains the minimal hypnotic doses measured on various animals (HDmin), while in Table III the results of various CNS tests on mice are summarized.

[2] = test system: mice; test: CNS test: Rotating rod; type: in vivo; settings: Mus musculus, ip
From the text: as §1, §2

[3] = test system: Mouse; test: Minimal hypnotic dose (HDmin), mouse; type: in vivo; settings: ip
From the text: as §1, §2

[4] = test system: mice; test: CNS test: Tranquillizing effect (fighting test); type: in vivo; settings: Mus musculus, po
From the text: as §1, §2

[5] = test system: mice; test: CNS test: Narcosis potentiating; type: in vivo; settings: Mus musculus, po
From the text: as §1, §2

[6] = in vivo; settings: mouse, mice
From the text: as §1, §2

[7] = test system: Rabbit; test: Minimal hypnotic dose (HDmin), rabbit; type: in vivo; settings: Oryctolagus cuniculus, ip
From the text: as §1, §2

[8] = test system: mice; test: CNS test: Motility; type: in vivo; settings: Mus musculus, po
From the text: as §1, §2

[9] = test system: Cat; test: Minimal hypnotic dose (HDmin), cat; type: in vivo; settings: Felis catus, ip
From the text: as §1, §2

[10] = test system: Rat; test: Minimal hypnotic dose (HDmin), rat; type: in vivo; settings: ip
From the text: as §1, §2

CCC1(c2ccccc2)CCC(=O)NC1=O (stereo not drawn) [Glutethimid, 3-ethyl-3-phenyl-2,6-dioxo-piperidine]
ED50 ([1]; ip): 135 mg/kg
ED50 ([1]; po): 200 mg/kg
ED50 [2]: 70 mg/kg
minimal effective dose [3]: 100 mg/kg
ED50 [4]: 40 mg/kg
ED100 [5]: 30 mg/kg
LD50 ([6]; ip): 305 mg/kg
LD50 ([6]; po): 580 mg/kg
minimal effective dose [7]: 175 mg/kg
ED50 [8]: 135 mg/kg
minimal effective dose [9]: 125 mg/kg
minimal effective dose [10]: 100 mg/kg
